Measured values published in ChEMBL document CHEMBL3132851, “Achieving improved permeability by hydrogen bond donor modulation in a series of MGAT2 inhibitors” (Medchemcomm, 2013).
pIC50: −log10 of the molar value. Converted amounts (≈) assume the structure as drawn.

Key:
[1] = (§1) Apparent permeability of the compound from apical to basolateral side in human Caco2 cells; conditions: Caco-2, Papp
[2] = Lipophilicity, log D of the compound at pH 7.4 after 30 mins by shake-flask method; conditions: buffer; for logD at 0.5 h: pH 7.4, logD; for logD: pH 7.4, 0.5 h, 0.5 h
[3] = molecular target: 2-acylglycerol O-acyltransferase 2 (Homo sapiens, UniProt Q3SYC2); assay: Inhibition of human MGAT2 by Rapidfire LCMS assay
Caco-2 = assay: as §1; conditions: caco-2
[4] = Bioavailability in mouse at 50 mg/kg, po and 1 mg/kg, iv; type: ADME, organism-based; conditions: in vivo
[5] = Half life in mouse at 1 mg/kg, iv; type: ADME, organism-based; set-up: dose 1 mg/kg, route intravenous; conditions: in vivo
[6] = Volume of distribution at steady state in mouse at 50 mg/kg, po and 1 mg/kg, iv; type: ADME, organism-based; conditions: in vivo, read-out: Vdss
[7] = Plasma clearance in mouse at 50 mg/kg, po and 1 mg/kg, iv; type: ADME, organism-based
[8] = Aqueous solubility of the compound in phosphate buffer at pH 7.4 after 24 hrs by LC-UVMS analysis; type: physicochemical
[9] = Unbound fraction in human plasma by equilibrium dialysis method; type: ADME, cell-free
[10] = Unbound fraction in mouse plasma by equilibrium dialysis method; type: ADME, cell-free
[11] = Unbound fraction in rat plasma by equilibrium dialysis method; type: ADME, cell-free
Cytochrome P450 2C19 = Cytochrome P450 2C19 (Homo sapiens, UniProt P33261); assay: Inhibition of CYP2C19 (unknown origin); type: ADME
Cytochrome P450 3A4 = Cytochrome P450 3A4 (Homo sapiens, UniProt P08684); assay: Inhibition of CYP3A4 (unknown origin); type: ADME
Cytochrome P450 2D6 = Cytochrome P450 2D6 (Homo sapiens, UniProt P10635); assay: Inhibition of CYP2D6 (unknown origin); type: ADME
Cytochrome P450 2C9 = Cytochrome P450 2C9 (Homo sapiens, UniProt P11712); assay: Inhibition of CYP2C9 (unknown origin); type: ADME
Cytochrome P450 1A2 = molecular target: T1, Cytochrome P450 1A2 (Homo sapiens, UniProt P05177); assay: Inhibition of CYP1A2 (unknown origin); type: ADME
T1 sequence (P05177 whole entry): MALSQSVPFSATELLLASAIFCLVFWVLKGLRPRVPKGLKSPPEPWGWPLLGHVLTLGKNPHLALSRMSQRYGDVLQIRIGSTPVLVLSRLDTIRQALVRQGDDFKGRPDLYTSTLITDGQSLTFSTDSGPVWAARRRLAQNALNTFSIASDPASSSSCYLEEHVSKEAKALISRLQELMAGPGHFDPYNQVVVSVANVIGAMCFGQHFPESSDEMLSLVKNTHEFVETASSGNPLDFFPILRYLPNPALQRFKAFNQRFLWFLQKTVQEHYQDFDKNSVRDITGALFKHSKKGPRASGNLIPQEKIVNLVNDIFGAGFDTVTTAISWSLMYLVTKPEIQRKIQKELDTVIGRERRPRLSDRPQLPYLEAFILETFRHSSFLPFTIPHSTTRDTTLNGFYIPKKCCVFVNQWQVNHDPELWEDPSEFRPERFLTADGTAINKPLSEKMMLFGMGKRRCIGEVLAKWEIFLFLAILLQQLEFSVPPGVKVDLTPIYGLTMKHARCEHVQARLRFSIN

[12] = Half life in rat at 3 mg/kg, po; type: ADME, organism-based; set-up: dose 3 mg/kg, route oral; conditions: in vivo
[13] = Bioavailability in rat at 3 mg/kg, po and 1 mg/kg, iv; type: ADME, organism-based; conditions: in vivo
[14] = Half life in rat at 1 mg/kg, iv; type: ADME, organism-based; set-up: dose 1 mg/kg, route intravenous; conditions: in vivo
[15] = Volume of distribution at steady state in rat at 3 mg/kg, po and 1 mg/kg, iv; type: ADME, organism-based; conditions: in vivo, read-out: Vdss
[16] = Plasma clearance in rat at 3 mg/kg, po and 1 mg/kg, iv; type: ADME, organism-based
[17] = Half life in mouse at 50 mg/kg, po; type: ADME, organism-based; set-up: dose 50 mg/kg, route oral; conditions: in vivo

2-acylglycerol O-acyltransferase 2, sequence (Q3SYC2 whole entry): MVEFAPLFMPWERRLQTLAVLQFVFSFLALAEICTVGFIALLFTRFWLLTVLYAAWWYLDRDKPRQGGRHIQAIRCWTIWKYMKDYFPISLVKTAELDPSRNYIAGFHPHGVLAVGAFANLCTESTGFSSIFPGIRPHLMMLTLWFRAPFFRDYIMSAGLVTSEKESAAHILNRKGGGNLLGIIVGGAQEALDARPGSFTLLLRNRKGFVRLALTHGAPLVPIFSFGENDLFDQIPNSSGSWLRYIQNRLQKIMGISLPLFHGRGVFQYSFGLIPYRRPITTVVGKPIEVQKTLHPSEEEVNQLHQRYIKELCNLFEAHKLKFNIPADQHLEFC
Cytochrome P450 2C9, sequence (P11712 whole entry): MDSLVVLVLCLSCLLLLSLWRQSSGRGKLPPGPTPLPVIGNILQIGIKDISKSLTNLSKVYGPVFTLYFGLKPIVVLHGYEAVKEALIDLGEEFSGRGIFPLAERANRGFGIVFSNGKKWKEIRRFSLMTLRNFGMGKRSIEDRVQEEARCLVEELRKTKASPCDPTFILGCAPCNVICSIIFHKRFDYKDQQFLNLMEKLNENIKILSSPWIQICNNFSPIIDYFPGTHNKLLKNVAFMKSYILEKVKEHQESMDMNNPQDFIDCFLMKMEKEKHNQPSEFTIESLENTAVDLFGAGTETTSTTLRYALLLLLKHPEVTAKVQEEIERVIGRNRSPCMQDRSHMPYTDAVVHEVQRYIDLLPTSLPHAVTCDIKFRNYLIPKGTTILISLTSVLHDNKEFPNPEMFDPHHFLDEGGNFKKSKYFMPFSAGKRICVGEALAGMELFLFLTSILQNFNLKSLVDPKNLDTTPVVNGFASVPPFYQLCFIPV
Cytochrome P450 2C19, sequence (P33261 whole entry): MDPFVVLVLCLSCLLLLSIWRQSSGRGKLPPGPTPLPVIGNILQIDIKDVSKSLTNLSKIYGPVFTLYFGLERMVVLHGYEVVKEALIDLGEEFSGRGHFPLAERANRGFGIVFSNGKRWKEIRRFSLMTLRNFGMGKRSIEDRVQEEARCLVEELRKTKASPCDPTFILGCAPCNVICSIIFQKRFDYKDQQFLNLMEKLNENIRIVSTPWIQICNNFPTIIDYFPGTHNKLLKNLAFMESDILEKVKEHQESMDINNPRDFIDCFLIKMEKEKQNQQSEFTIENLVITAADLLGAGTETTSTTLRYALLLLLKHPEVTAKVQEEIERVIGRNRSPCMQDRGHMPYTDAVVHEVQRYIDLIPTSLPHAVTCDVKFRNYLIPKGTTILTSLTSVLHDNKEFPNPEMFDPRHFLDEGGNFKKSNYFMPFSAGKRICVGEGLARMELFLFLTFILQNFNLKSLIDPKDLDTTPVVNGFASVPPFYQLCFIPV
Cytochrome P450 2D6, sequence (P10635 whole entry): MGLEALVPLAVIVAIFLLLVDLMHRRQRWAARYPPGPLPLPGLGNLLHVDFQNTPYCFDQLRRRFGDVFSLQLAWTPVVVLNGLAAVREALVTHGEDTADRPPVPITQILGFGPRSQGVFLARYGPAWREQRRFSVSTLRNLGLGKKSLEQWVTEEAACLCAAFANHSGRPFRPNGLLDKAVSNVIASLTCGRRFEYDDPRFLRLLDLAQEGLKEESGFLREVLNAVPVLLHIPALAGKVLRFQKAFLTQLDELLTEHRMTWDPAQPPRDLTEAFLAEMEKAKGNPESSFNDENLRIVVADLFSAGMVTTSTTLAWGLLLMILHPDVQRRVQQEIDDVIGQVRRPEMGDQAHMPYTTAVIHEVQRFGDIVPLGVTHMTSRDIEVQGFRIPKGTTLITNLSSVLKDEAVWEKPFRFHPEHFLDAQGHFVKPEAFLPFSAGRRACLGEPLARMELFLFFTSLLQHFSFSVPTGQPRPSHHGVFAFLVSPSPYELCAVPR
Cytochrome P450 3A4, sequence (P08684 whole entry): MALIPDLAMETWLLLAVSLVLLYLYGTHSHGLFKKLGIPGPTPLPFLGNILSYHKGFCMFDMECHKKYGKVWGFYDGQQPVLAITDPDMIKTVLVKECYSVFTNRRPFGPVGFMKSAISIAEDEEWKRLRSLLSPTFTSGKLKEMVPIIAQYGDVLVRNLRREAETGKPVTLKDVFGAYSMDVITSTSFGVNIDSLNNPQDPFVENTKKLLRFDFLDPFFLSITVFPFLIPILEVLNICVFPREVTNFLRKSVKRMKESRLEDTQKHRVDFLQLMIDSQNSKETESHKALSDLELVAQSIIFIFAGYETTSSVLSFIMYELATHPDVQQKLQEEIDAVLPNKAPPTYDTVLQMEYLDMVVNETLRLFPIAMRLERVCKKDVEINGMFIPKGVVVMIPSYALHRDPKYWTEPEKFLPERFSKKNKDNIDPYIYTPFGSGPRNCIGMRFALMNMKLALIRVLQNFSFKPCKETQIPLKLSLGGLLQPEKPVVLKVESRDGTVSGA

| Papp A→B [1] | logD at 0.5 h [2] | pIC50 [3] | also measured | Compound |
| --- | --- | --- | --- | --- |
| 4 ×10⁻⁶ cm/s | 2.4 | 4.39 |  | CC1(C)NC(=O)c2c(ccc(S(=O)(=O)Nc3ccc(C(F)(F)F)cc3)c2F)NC1=O |
| 46 ×10⁻⁶ cm/s | 1.9 | 7.52 |  | CC1(C)NC(=O)c2cc(S(=O)(=O)Nc3ccc(F)cc3F)cc(C(F)(F)F)c2NC1=O |
| 1 ×10⁻⁶ cm/s | 2.8 | 5.12 |  | COc1cc2c(cc1S(=O)(=O)Nc1ccc(C(F)(F)F)cc1)C(=O)NC(C)(C)C(=O)N2 |
| 1 ×10⁻⁶ cm/s | 1.6 | 4.98 |  | CC1(C)NC(=O)c2cc(S(=O)(=O)Nc3ccc(C(F)(F)F)cc3)ncc2NC1=O |
| 9 ×10⁻⁶ cm/s |  | 4.87 |  | Cc1c(S(=O)(=O)Nc2ccc(C(F)(F)F)cc2)ccc2c1C(=O)NC(C)(C)C(=O)N2 |
| 9 ×10⁻⁶ cm/s | 1.7 | 7.92 |  | CC[C@]1(C)NC(=O)c2cc(S(=O)(=O)Nc3ccc(C(F)(F)F)cc3F)ccc2NC1=O |
|  |  | 7.64 | Papp (Caco-2): 14 ×10⁻⁶ cm/s; logD [2]: 0.4 | CCC1(C)NC(=O)c2cc(S(=O)(=O)Nc3ccc(C)cc3C#N)cc(Cl)c2NC1=O (single isomer, unassigned; enantiomer 1) |
| 14 ×10⁻⁶ cm/s | 2.3 | 5.71 |  | CC1(C)NC(=O)c2cc(S(=O)(=O)Nc3ccc(C(F)(F)F)cc3)cc(F)c2NC1=O |
| 8 ×10⁻⁶ cm/s | 1.7 |  |  | CC[C@]1(C)NC(=O)c2cc(S(=O)(=O)Nc3ccc(F)cc3F)ccc2NC1=O |
| 11 ×10⁻⁶ cm/s | 0.6 | 6.93 |  | CCC1(C)NC(=O)c2cc(S(=O)(=O)Nc3ccc(C)cc3C#N)cc(Cl)c2NC1=O (single isomer, unassigned) |
|  |  | 8.15 | Papp (Caco-2): 9 ×10⁻⁶ cm/s; logD [2]: 6.5 | CCC1(C)NC(=O)c2cc(S(=O)(=O)Nc3ccc(F)cc3F)cc(C)c2NC1=O (single isomer, unassigned) |
|  |  | 4.87 |  | Cc1cc2c(cc1S(=O)(=O)Nc1ccc(C(F)(F)F)cc1)C(=O)NC(C)(C)C(=O)N2 |
| 10 ×10⁻⁶ cm/s | 1.4 | 7.80 |  | Cc1cc(S(=O)(=O)Nc2ccc(F)cc2F)cc2c1NC(=O)C(C)(C)NC2=O |
| 10 ×10⁻⁶ cm/s | 1.8 | < 4.18 |  | CC1(C)NC(=O)c2cc(S(=O)(=O)Nc3ccc(C(F)(F)F)cc3)cnc2NC1=O |
| 24 ×10⁻⁶ cm/s | 2.1 | 8.40 |  | CCc1cc(S(=O)(=O)Nc2ccc(F)cc2F)cc2c1NC(=O)C(C)(CC)NC2=O (racemic) |
|  |  | 5.83 |  | CC1(C)NC(=O)c2cc(S(=O)(=O)Nc3ccc(C(F)(F)F)cc3)c(F)cc2NC1=O |
| 14 ×10⁻⁶ cm/s | 5.4 | 7.21 |  | CCC1(C)NC(=O)c2cc(S(=O)(=O)Nc3ccc(F)cc3F)cc(C)c2NC1=O (single isomer, unassigned; enantiomer 2) |
| 12 ×10⁻⁶ cm/s | 2.6 | 6.96 |  | COc1cc(S(=O)(=O)Nc2ccc(C(F)(F)F)cc2)cc2c1NC(=O)C(C)(C)NC2=O |
| 6 ×10⁻⁶ cm/s | 2.6 | 6.04 |  | CC1(C)NC(=O)c2cc(S(=O)(=O)Nc3ccc(C(F)(F)F)cc3)ccc2NC1=O |
| 7 ×10⁻⁶ cm/s | 2.6 | 7.28 |  | Cc1cc(S(=O)(=O)Nc2ccc(C(F)(F)F)cc2)cc2c1NC(=O)C(C)(C)NC2=O |
| 22 ×10⁻⁶ cm/s | 1.8 | 8.00 |  | CCC1(C)NC(=O)c2cc(S(=O)(=O)Nc3ccc(F)cc3F)cc(OC)c2NC1=O (racemic) |
| 35 ×10⁻⁶ cm/s | 1.9 | 8.05 | bioavailability [4]: 74%; half-life [5]: 0.2 h; Vd [6]: 0.5 L/kg; clearance [7]: 29 mL/min/kg; solubility at 24 h [8]: 150 µM (≈ 66.6 µg/mL); fraction unbound [9]: 0.017; fraction unbound [10]: 0.037; fraction unbound [11]: 0.03; pIC50 (Cytochrome P450 2C19): 4.57; pIC50 (Cytochrome P450 3A4): < 4.52; pIC50 (Cytochrome P450 2D6): < 4.52; pIC50 (Cytochrome P450 2C9): < 4.52; pIC50 (Cytochrome P450 1A2): < 4.52; half-life [12]: 2.4 h; bioavailability [13]: 69%; half-life [14]: 1.3 h; Vd [15]: 0.4 L/kg; clearance [16]: 4.1 mL/min/kg; half-life [17]: 1.2 h | CCC1(C)NC(=O)c2cc(S(=O)(=O)Nc3ccc(F)cc3F)cc(Cl)c2NC1=O (stereo not drawn) |
| 7 ×10⁻⁶ cm/s | 1.9 | < 4.00 |  | COc1c(S(=O)(=O)Nc2ccc(C(F)(F)F)cc2)ccc2c1C(=O)NC(C)(C)C(=O)N2 |
| 5 ×10⁻⁶ cm/s | 1.3 | 7.24 |  | CC1(C)NC(=O)c2cc(S(=O)(=O)Nc3ccc(F)cc3F)ccc2NC1=O |
| 3 ×10⁻⁶ cm/s |  | 6.39 |  | CC1(C)NC(=O)c2cc(S(=O)(=O)Nc3ccc(F)cc3F)cc(C#N)c2NC1=O |
| 29 ×10⁻⁶ cm/s | 1.8 | 7.92 |  | CCC1(C)NC(=O)c2cc(S(=O)(=O)Nc3ccc(C(F)(F)F)cc3F)cc(Cl)c2NC1=O (stereo not drawn) |
| 58 ×10⁻⁶ cm/s | 3 | 8.15 |  | CCC1(C)NC(=O)c2cc(S(=O)(=O)Nc3ccc(C(F)(F)F)cc3OC)cc(Cl)c2NC1=O (stereo not drawn) |
